Several values for one entry are separate records, joined by “and”; a condition that tells them apart may be missing. Equal entries are not always repeated.
System: NCI-H1876 complex spheroid viability
Experiment: Anticancer human tumor NCI-H1876 cell line growth inhibition [LSD1];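 note: spheroids exposed to compounds for one week before readout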;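 for viability, T/C: 100% = DMSO vehicle-treated spheroids so lower means fewer viable cells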
Details: for viability, T/C: stronger effect = lower value
Method in brief: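 Complex spheroids of tumor cells with HUVEC and human MSCs, exposed to iadademstat combined with other agents. Each agent tested in half-log steps from near clinical Cmax (else 10 microM top), DMSO ≤0.25%.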

[1] = curve of first compound, second compound 0.1 µM
[2] = curve of first compound, second compound 0.316 µM
[3] = curve of first compound, second compound 1 µM
[4] = curve of first compound, second compound 3.16 µM
[5] = curve of first compound, second compound 10 µM
[6] = second compound 0.1 µM, first compound 0.00949 µM
[7] = second compound 0.1 µM, first compound 0.03 µM
[8] = second compound 0.1 µM, first compound 0.0949 µM
[9] = second compound 0.1 µM, first compound 0.3 µM
[10] = second compound 0.316 µM, first compound 0.00949 µM
[11] = second compound 0.316 µM, first compound 0.03 µM
[12] = second compound 0.316 µM, first compound 0.0949 µM
[13] = second compound 0.316 µM, first compound 0.3 µM
[14] = second compound 1 µM, first compound 0.00949 µM
[15] = second compound 1 µM, first compound 0.03 µM
[16] = second compound 1 µM, first compound 0.0949 µM
[17] = second compound 1 µM, first compound 0.3 µM
[18] = second compound 3.16 µM, first compound 0.00949 µM
[19] = second compound 3.16 µM, first compound 0.03 µM
[20] = second compound 3.16 µM, first compound 0.0949 µM
[21] = second compound 3.16 µM, first compound 0.3 µM
[22] = second compound 10 µM, first compound 0.00949 µM
[23] = second compound 10 µM, first compound 0.03 µM
[24] = second compound 10 µM, first compound 0.0949 µM
[25] = second compound 10 µM, first compound 0.3 µM
[26] = second compound 0.1 µM, first compound 0.0316 µM
[27] = second compound 0.1 µM, first compound 0.1 µM
[28] = second compound 0.1 µM, first compound 0.316 µM
[29] = second compound 0.1 µM, first compound 1 µM
[30] = second compound 0.316 µM, first compound 0.0316 µM
[31] = second compound 0.316 µM, first compound 0.1 µM
[32] = second compound 0.316 µM, first compound 0.316 µM
[33] = second compound 0.316 µM, first compound 1 µM
[34] = second compound 1 µM, first compound 0.0316 µM
[35] = second compound 1 µM, first compound 0.1 µM
[36] = second compound 1 µM, first compound 0.316 µM
[37] = second compound 1 µM, first compound 1 µM
[38] = second compound 3.16 µM, first compound 0.0316 µM
[39] = second compound 3.16 µM, first compound 0.1 µM
[40] = second compound 3.16 µM, first compound 0.316 µM
[41] = second compound 3.16 µM, first compound 1 µM
[42] = second compound 10 µM, first compound 0.0316 µM
[43] = second compound 10 µM, first compound 0.1 µM
[44] = second compound 10 µM, first compound 0.316 µM
[45] = second compound 10 µM, first compound 1 µM

CCc1c2c(nc3ccc(O)cc13)-c1cc3c(c(=O)n1C2)COC(=O)[C@]3(O)CC + NC1CCC(NC2CC2c2ccccc2)CC1
IC50 [1]: < 0.949 nM | IC50 [2]: < 0.949 nM | IC50 [3]: < 0.949 nM | IC50 [4]: < 0.949 nM | IC50 [5]: < 0.949 nM | viability, T/C (second compound 0.1 µM, first compound 0.000949 µM): 8.41% | viability, T/C (second compound 0.1 µM, first compound 0.003 µM): 6.69% | viability, T/C [6]: 4.51% | viability, T/C [7]: 17% | viability, T/C [8]: 0.42% | viability, T/C [9]: 0.51% | viability, T/C (second compound 0.316 µM, first compound 0.000949 µM): 9.1% | viability, T/C (second compound 0.316 µM, first compound 0.003 µM): 7.39% | viability, T/C [10]: 26.4% | viability, T/C [11]: 34.6% | viability, T/C [12]: 0.46% | viability, T/C [13]: 0.47% | viability, T/C (second compound 1 µM, first compound 0.000949 µM): 9.13% | viability, T/C (second compound 1 µM, first compound 0.003 µM): 7.08% | viability, T/C [14]: 3.54% | viability, T/C [15]: 16.9% | viability, T/C [16]: 0.38% | viability, T/C [17]: 0.41% | viability, T/C (second compound 3.16 µM, first compound 0.000949 µM): 7.88% | viability, T/C (second compound 3.16 µM, first compound 0.003 µM): 7% | viability, T/C [18]: 4.05% | viability, T/C [19]: 8.64% | viability, T/C [20]: 0.31% | viability, T/C [21]: 0.45% | viability, T/C (second compound 10 µM, first compound 0.000949 µM): 9.76% | viability, T/C (second compound 10 µM, first compound 0.003 µM): 7.48% | viability, T/C [22]: 31.4% | viability, T/C [23]: 8.78% | viability, T/C [24]: 15.6% | viability, T/C [25]: 0.65%

CCN(c1cc(-c2ccc(CN3CCOCC3)cc2)cc(C(=O)NCc2c(C)cc(C)[nH]c2=O)c1C)C1CCOCC1
viability, T/C (compound 0.00949 µM): 104% and 108% | viability, T/C (compound 0.03 µM): 97.2% and 107% | viability, T/C (compound 0.0949 µM): 104% and 96.1% | viability, T/C (compound 0.3 µM): 101% and 96.2% | viability, T/C (compound 0.949 µM): 82.7% and 79.5% | viability, T/C (compound 3 µM): 55.7% and 54.8% | IC50 (curve of compound): > 3000 nM

NS(=O)(=O)OCC1CC(n2ccc3c(NC4CCc5ccccc54)ncnc32)CC1O (centres undefined) + NC1CCC(NC2CC2c2ccccc2)CC1
IC50 [1]: 101 nM | IC50 [2]: 78 nM | IC50 [3]: 71.8 nM | IC50 [4]: 68.9 nM | IC50 [5]: 83 nM | viability, T/C [6]: 78.2% | viability, T/C [7]: 60.1% | viability, T/C [8]: 56.1% | viability, T/C [9]: 36.6% | viability, T/C (second compound 0.1 µM, first compound 0.949 µM): 36.1% | viability, T/C (second compound 0.1 µM, first compound 3 µM): 31.7% | viability, T/C [10]: 75.3% | viability, T/C [11]: 60.5% | viability, T/C [12]: 47.2% | viability, T/C [13]: 39.4% | viability, T/C (second compound 0.316 µM, first compound 0.949 µM): 37.9% | viability, T/C (second compound 0.316 µM, first compound 3 µM): 31.4% | viability, T/C [14]: 83.5% | viability, T/C [15]: 62.3% | viability, T/C [16]: 46.8% | viability, T/C [17]: 35.1% | viability, T/C (second compound 1 µM, first compound 0.949 µM): 34.2% | viability, T/C (second compound 1 µM, first compound 3 µM): 30.1% | viability, T/C [18]: 70.9% | viability, T/C [19]: 57.9% | viability, T/C [20]: 48.4% | viability, T/C [21]: 35.9% | viability, T/C (second compound 3.16 µM, first compound 0.949 µM): 33.6% | viability, T/C (second compound 3.16 µM, first compound 3 µM): 28.8% | viability, T/C [22]: 77.3% | viability, T/C [23]: 63% | viability, T/C [24]: 47.6% | viability, T/C [25]: 37% | viability, T/C (second compound 10 µM, first compound 0.949 µM): 32.3% | viability, T/C (second compound 10 µM, first compound 3 µM): 24.4%

CC[C@@]1(O)C(=O)OCc2c1cc1n(c2=O)Cc2cc3c(CN(C)C)c(O)ccc3nc2-1
viability, T/C (compound 0.000316 µM): 94% and 106% | viability, T/C (compound 0.001 µM): 86.2% and 81.2% | viability, T/C (compound 0.00316 µM): 33.5% and 14.2% | viability, T/C (compound 0.01 µM): 27.7% and 10.6% | viability, T/C (compound 0.0316 µM): 19.8% and 6.98% | viability, T/C (compound 0.1 µM): 15.5% and 4.68% | IC50 (curve of compound): 2.22 nM and 1.71 nM

CC1(C)CCC(CN2CCN(c3ccc(C(=O)NS(=O)(=O)c4ccc(NCC5CCOCC5)c([N+](=O)[O-])c4)c(Oc4cnc5[nH]ccc5c4)c3)CC2)=C(c2ccc(Cl)cc2)C1 + NC1CC1c1ccc(-c2cccc(O)c2)cc1
IC50 [1]: 2080 nM | IC50 [2]: 2080 nM | IC50 [3]: 2170 nM | IC50 [4]: 2060 nM | IC50 [5]: 1920 nM | viability, T/C [26]: 111% | viability, T/C [27]: 110% | viability, T/C [28]: 117% | viability, T/C [29]: 108% | viability, T/C (second compound 0.1 µM, first compound 3.16 µM): 16.6% | viability, T/C (second compound 0.1 µM, first compound 10 µM): 6.77% | viability, T/C [30]: 97.1% | viability, T/C [31]: 85.9% | viability, T/C [32]: 122% | viability, T/C [33]: 110% | viability, T/C (second compound 0.316 µM, first compound 3.16 µM): 19.3% | viability, T/C (second compound 0.316 µM, first compound 10 µM): 7.99% | viability, T/C [34]: 99.5% | viability, T/C [35]: 103% | viability, T/C [36]: 105% | viability, T/C [37]: 111% | viability, T/C (second compound 1 µM, first compound 3.16 µM): 23.3% | viability, T/C (second compound 1 µM, first compound 10 µM): 7.5% | viability, T/C [38]: 113% | viability, T/C [39]: 122% | viability, T/C [40]: 105% | viability, T/C [41]: 99.8% | viability, T/C (second compound 3.16 µM, first compound 3.16 µM): 20.6% | viability, T/C (second compound 3.16 µM, first compound 10 µM): 8.68% | viability, T/C [42]: 112% | viability, T/C [43]: 120% | viability, T/C [44]: 110% | viability, T/C [45]: 89.2% | viability, T/C (second compound 10 µM, first compound 3.16 µM): 19.8% | viability, T/C (second compound 10 µM, first compound 10 µM): 6.33%

O=C(C=Cn1cnc(-c2cc(C(F)(F)F)cc(C(F)(F)F)c2)n1)NNc1cnccn1 + NC1CC1c1ccc(-c2cccc(O)c2)cc1
IC50 [1]: 78 nM | IC50 [2]: 78.6 nM | IC50 [3]: 83 nM | IC50 [4]: 86 nM | IC50 [5]: 109 nM | viability, T/C (second compound 0.1 µM, first compound 0.00316 µM): 96.7% | viability, T/C (second compound 0.1 µM, first compound 0.01 µM): 97.2% | viability, T/C [26]: 77.9% | viability, T/C [27]: 42.8% | viability, T/C [28]: 16.4% | viability, T/C [29]: 11.7% | viability, T/C (second compound 0.316 µM, first compound 0.00316 µM): 105% | viability, T/C (second compound 0.316 µM, first compound 0.01 µM): 104% | viability, T/C [30]: 81.8% | viability, T/C [31]: 42% | viability, T/C [32]: 16.4% | viability, T/C [33]: 11.3% | viability, T/C (second compound 1 µM, first compound 0.00316 µM): 97.5% | viability, T/C (second compound 1 µM, first compound 0.01 µM): 103% | viability, T/C [34]: 83.1% | viability, T/C [35]: 44.1% | viability, T/C [36]: 16.7% | viability, T/C [37]: 12.9% | viability, T/C (second compound 3.16 µM, first compound 0.00316 µM): 97.1% | viability, T/C (second compound 3.16 µM, first compound 0.01 µM): 99.5% | viability, T/C [38]: 78.7% | viability, T/C [39]: 46.9% | viability, T/C [40]: 18.2% | viability, T/C [41]: 14.1% | viability, T/C (second compound 10 µM, first compound 0.00316 µM): 96% | viability, T/C (second compound 10 µM, first compound 0.01 µM): 92.4% | viability, T/C [42]: 81.1% | viability, T/C [43]: 53.5% | viability, T/C [44]: 22.8% | viability, T/C [45]: 18.4%

NC1CCC(NC2CC2c2ccccc2)CC1 (centres undefined)
viability, T/C (compound 0.316 µM): 98.5% and 109% | viability, T/C (compound 1 µM): 102% [middle of 25 runs] | viability, T/C (compound 3.16 µM): 102% [middle of 25 runs] | viability, T/C (compound 10 µM): 103% [middle of 23 runs] | IC50 (compound alone, run of 02/15/2022): > 10000 nM

From PubChem BioAssay AID1918957 (Molecular Pharmacology Branch, DTP, NCI, 2023)
